How the values were obtained:
DG-75 = assay: cells; format: functional, cell-based; conditions: Homo sapiens;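 also: growth inhibition of DG-75 cells, read out with a cell viability assay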
Description: SANGER: Inhibition of human DG-75 cell growth in a cell viability assay.

DMS-153 = assay: cells; format: functional, cell-based; conditions: Homo sapiens
Description: SANGER: Inhibition of human DMS-153 cell growth in a cell viability assay.

EB-3 = assay: cells; format: functional, cell-based; conditions: Homo sapiens;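 also: human EB-3 cells, growth inhibition read out via a cell viability assay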
Description: SANGER: Inhibition of human EB-3 cell growth in a cell viability assay.

EVSA-T = assay: cells; format: functional, cell-based, Homo sapiens; conditions: Homo sapiens, EVSA-T;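 also: growth inhibition of EVSA-T cells, read out with a cell viability assay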
Description: SANGER: Inhibition of human EVSA-T cell growth in a cell viability assay.

G-361 = assay: cells; format: functional, cell-based, Homo sapiens; conditions: Homo sapiens, G-361
GDM-1 = assay: cells; format: functional, cell-based; conditions: Homo sapiens;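 also: cell viability readout used to measure growth inhibition of human GDM-1 cells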
Description: SANGER: Inhibition of human GDM-1 cell growth in a cell viability assay.

HT55 = assay: cells; format: functional, cell-based, Homo sapiens; conditions: Homo sapiens, HT55;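 also: cell viability readout measuring growth inhibition of human HT55 cells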
Description: SANGER: Inhibition of human HT55 cell growth in a cell viability assay.

IM-9 = assay: SANGER: Inhibition of human IM-9 cell growth in a cell viability assay.; format: functional, cell-based
K052 = assay: cells; format: functional, cell-based; conditions: Homo sapiens;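 also: Read-out from a cell viability assay, IC50 reflecting suppression of K052 cell growth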
Description: SANGER: Inhibition of human K052 cell growth in a cell viability assay.

KMS-12-PE = assay: cells; format: functional, cell-based; conditions: Homo sapiens;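 also: growth inhibition of human KMS-12-PE cells, measured with a cell viability assay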
Description: SANGER: Inhibition of human KMS-12-PE cell growth in a cell viability assay.

LB647-SCLC = assay: cells; format: functional, cell-based; conditions: Homo sapiens;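 also: cell growth inhibition, read out by a viability assay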
Description: SANGER: Inhibition of human LB647-SCLC cell growth in a cell viability assay.

LOUCY = assay: cells; format: functional, cell-based; conditions: Homo sapiens;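 also: growth inhibition of human LOUCY cells, read out with a cell viability assay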
Description: SANGER: Inhibition of human LOUCY cell growth in a cell viability assay.

LU-165 = assay: cells; format: functional, cell-based; conditions: Homo sapiens
Description: SANGER: Inhibition of human LU-165 cell growth in a cell viability assay.

MEL-JUSO = assay: cells; format: functional, cell-based, Homo sapiens; conditions: Homo sapiens, MEL-JUSO;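 also: growth inhibition of human MEL-JUSO cells, read out with a cell viability assay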
Description: SANGER: Inhibition of human MEL-JUSO cell growth in a cell viability assay.

MHH-CALL-2 = assay: cells; format: functional, cell-based; conditions: Homo sapiens;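 also: growth inhibition of the cell line, read out in a cell viability assay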
Description: SANGER: Inhibition of human MHH-CALL-2 cell growth in a cell viability assay.

MONO-MAC-6 = assay: cells; format: functional, cell-based; conditions: Homo sapiens;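 also: cell viability assay measuring growth inhibition of human MONO-MAC-6 cells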
Description: SANGER: Inhibition of human MONO-MAC-6 cell growth in a cell viability assay.

NB1 = assay: cells; format: functional, cell-based; conditions: Homo sapiens;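 also: reduction of NB1 cell proliferation, read out with a viability assay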
Description: SANGER: Inhibition of human NB1 cell growth in a cell viability assay.

NCI-H1417 = assay: cells; format: functional, cell-based; conditions: Homo sapiens;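 also: human NCI-H1417 cells, growth inhibition determined with a cell viability readout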
Description: SANGER: Inhibition of human NCI-H1417 cell growth in a cell viability assay.

NCI-H1436 = assay: cells; format: functional, cell-based; conditions: Homo sapiens;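 also: growth suppression of human NCI-H1436 cells, determined with a cell viability readout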
Description: SANGER: Inhibition of human NCI-H1436 cell growth in a cell viability assay.

NCI-H1522 = assay: cells; format: functional, cell-based; conditions: Homo sapiens;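 also: growth inhibition of NCI-H1522 cells, read out with a cell viability assay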
Description: SANGER: Inhibition of human NCI-H1522 cell growth in a cell viability assay.

NCI-H1694 = assay: cells; format: functional, cell-based; conditions: Homo sapiens;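 also: cell viability assay measuring inhibition of growth in human NCI-H1694 cells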
Description: SANGER: Inhibition of human NCI-H1694 cell growth in a cell viability assay.

NCI-H1703 = assay: cells; format: functional, cell-based, Homo sapiens; conditions: Homo sapiens, NCI-H1703;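 also: growth inhibition of NCI-H1703 cells, read out via a cell viability assay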
Description: SANGER: Inhibition of human NCI-H1703 cell growth in a cell viability assay.

NCI-H2009 = assay: cells; format: functional, cell-based, Homo sapiens; conditions: Homo sapiens, NCI-H2009;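 also: cell viability assay measuring inhibition of NCI-H2009 cell growth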
Description: SANGER: Inhibition of human NCI-H2009 cell growth in a cell viability assay.

NCI-H2081 = assay: cells; format: functional, cell-based; conditions: Homo sapiens;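 also: growth inhibition of human NCI-H2081 cells, read out with a cell viability assay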
Description: SANGER: Inhibition of human NCI-H2081 cell growth in a cell viability assay.

NCI-H2141 = assay: cells; format: functional, cell-based; conditions: Homo sapiens;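 also: growth inhibition of human NCI-H2141 cells, read out with a cell viability assay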
Description: SANGER: Inhibition of human NCI-H2141 cell growth in a cell viability assay.

NCI-H2171 = assay: cells; format: functional, cell-based; conditions: Homo sapiens;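 also: growth inhibition of human NCI-H2171 cells, read out by a cell viability assay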
Description: SANGER: Inhibition of human NCI-H2171 cell growth in a cell viability assay.

NCI-H345 = assay: cells; format: functional, cell-based; conditions: Homo sapiens;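 also: growth inhibition of NCI-H345 cells measured with a cell viability assay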
Description: SANGER: Inhibition of human NCI-H345 cell growth in a cell viability assay.

NCI-H460 = assay: cells; format: functional, cell-based, Homo sapiens; conditions: Homo sapiens, NCI-H460;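 also: cell viability assay scoring growth inhibition of human NCI-H460 cells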
Description: SANGER: Inhibition of human NCI-H460 cell growth in a cell viability assay.

NCI-H64 = assay: cells; format: functional, cell-based; conditions: Homo sapiens;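 also: growth inhibition of NCI-H64 cells, read out with a cell viability assay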
Description: SANGER: Inhibition of human NCI-H64 cell growth in a cell viability assay.

NCI-H748 = assay: cells; format: functional, cell-based; conditions: Homo sapiens;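 also: growth inhibition of NCI-H748 cells, measured by a cell viability assay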
Description: SANGER: Inhibition of human NCI-H748 cell growth in a cell viability assay.

NCI-H889 = assay: cells; format: functional, cell-based; conditions: Homo sapiens;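 also: cell growth inhibition of the cell line, read out with a viability assay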
Description: SANGER: Inhibition of human NCI-H889 cell growth in a cell viability assay.

REH = assay: cells; format: functional, cell-based; conditions: Homo sapiens;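 also: growth inhibition of REH cells determined with a cell viability read-out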
Description: SANGER: Inhibition of human REH cell growth in a cell viability assay.

RPMI 8402 = assay: SANGER: Inhibition of human RPMI-8402 cell growth in a cell viability assay.; format: functional, cell-based
SCC-3 = assay: cells; format: functional, cell-based; conditions: Homo sapiens;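 also: cell viability assay measuring inhibition of SCC-3 cell growth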
Description: SANGER: Inhibition of human SCC-3 cell growth in a cell viability assay.

SCLC-21H = assay: cells; format: functional, cell-based; conditions: Homo sapiens;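 also: growth inhibition of cultured human SCLC-21H cells, read out with a cell viability assay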
Description: SANGER: Inhibition of human SCLC-21H cell growth in a cell viability assay.

SIMA = assay: cells; format: functional, cell-based, Homo sapiens; conditions: Homo sapiens, SIMA;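 also: growth inhibition of SIMA cells, measured with a cell viability readout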
Description: SANGER: Inhibition of human SIMA cell growth in a cell viability assay.

SJRH30 = assay: cells; format: functional, cell-based; conditions: Homo sapiens;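 also: growth inhibition of human SJRH30 cells, read out with a cell viability assay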
Description: SANGER: Inhibition of human SJRH30 cell growth in a cell viability assay.

SK-MM-2 = assay: cells; format: functional, cell-based; conditions: Homo sapiens;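 also: growth inhibition of human SK-MM-2 cells, read out with a cell viability assay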
Description: SANGER: Inhibition of human SK-MM-2 cell growth in a cell viability assay.

ST486 = assay: SANGER: Inhibition of human ST486 cell growth in a cell viability assay.; format: functional, cell-based
SUP-T1 = assay: cells; format: functional, cell-based; conditions: Homo sapiens;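 also: growth inhibition of human SUP-T1 cells, read out as cell viability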
Description: SANGER: Inhibition of human SUP-T1 cell growth in a cell viability assay.

ARH-77 = assay: cells; format: functional, cell-based; conditions: Homo sapiens;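 also: growth inhibition of ARH-77 cells, read out by a cell viability assay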
Description: SANGER: Inhibition of human ARH-77 cell growth in a cell viability assay.

BC-3 = assay: cells; format: functional, cell-based; conditions: Homo sapiens;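 also: cell viability assay measuring growth inhibition of human BC-3 cells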
Description: SANGER: Inhibition of human BC-3 cell growth in a cell viability assay.

BL-41 = assay: cells; format: functional, cell-based; conditions: Homo sapiens;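 also: growth inhibition of human BL-41 cells, read out with a cell viability assay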
Description: SANGER: Inhibition of human BL-41 cell growth in a cell viability assay.

CA46 = assay: cells; format: functional, cell-based; conditions: Homo sapiens;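 also: growth inhibition of human CA46 cells, read out by a cell viability assay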
Description: SANGER: Inhibition of human CA46 cell growth in a cell viability assay.

CAL-148 = assay: cells; format: functional, cell-based; conditions: Homo sapiens
Description: SANGER: Inhibition of human CAL-148 cell growth in a cell viability assay.

TE-15 = assay: cells; format: functional, cell-based; conditions: Homo sapiens;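 also: cell viability readout of growth inhibition in TE-15 cells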
Description: SANGER: Inhibition of human TE-15 cell growth in a cell viability assay.

TE-441-T = assay: cells; format: functional, cell-based; conditions: Homo sapiens
Description: SANGER: Inhibition of human TE-441-T cell growth in a cell viability assay.

THP-1 = assay: cells; format: functional, cell-based; conditions: Homo sapiens;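 also: growth inhibition of THP-1 cells, read out via a cell viability assay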
Description: SANGER: Inhibition of human THP-1 cell growth in a cell viability assay.

CHP-126 = assay: cells; format: functional, cell-based; conditions: Homo sapiens
Description: SANGER: Inhibition of human CHP-126 cell growth in a cell viability assay.

SMILES: Cc1ccc(Nc2nccc(N(C)c3ccc4c(C)n(C)nc4c3)n2)cc1S(N)(=O)=O [PAZOPANIB]
- IC50 (DG-75): > 8 µM
- IC50 (DMS-153): > 8 µM
- IC50 (EB-3): > 8 µM
- IC50 (EVSA-T): > 8 µM
- IC50 (G-361): 3.04 µM
- IC50 (GDM-1): 0.104 µM
- IC50 (HT55): 0.988 µM
- IC50 (IM-9): > 8 µM
- IC50 (K052): > 8 µM
- IC50 (KMS-12-PE): > 8 µM
- IC50 (LB647-SCLC): > 8 µM
- IC50 (LOUCY): > 8 µM
- IC50 (LU-165): > 8 µM
- IC50 (MEL-JUSO): > 8 µM
- IC50 (MHH-CALL-2): > 8 µM
- IC50 (MONO-MAC-6): > 8 µM
- IC50 (NB1): > 8 µM
- IC50 (NCI-H1417): > 8 µM
- IC50 (NCI-H1436): > 8 µM
- IC50 (NCI-H1522): > 8 µM
- IC50 (NCI-H1694): > 8 µM
- IC50 (NCI-H1703): > 8 µM
- IC50 (NCI-H2009): > 8 µM
- IC50 (NCI-H2081): > 8 µM
- IC50 (NCI-H2141): > 8 µM
- IC50 (NCI-H2171): > 8 µM
- IC50 (NCI-H345): > 8 µM
- IC50 (NCI-H460): > 8 µM
- IC50 (NCI-H64): > 8 µM
- IC50 (NCI-H748): > 8 µM
- IC50 (NCI-H889): > 8 µM
- IC50 (REH): > 8 µM
- IC50 (RPMI 8402): > 8 µM
- IC50 (SCC-3): > 8 µM
- IC50 (SCLC-21H): > 8 µM
- IC50 (SIMA): > 8 µM
- IC50 (SJRH30): > 8 µM
- IC50 (SK-MM-2): > 8 µM
- IC50 (ST486): > 8 µM
- IC50 (SUP-T1): > 8 µM
- IC50 (ARH-77): > 8 µM
- IC50 (BC-3): > 8 µM
- IC50 (BL-41): > 8 µM
- IC50 (CA46): > 8 µM
- IC50 (CAL-148): > 8 µM
- IC50 (TE-15): 7.17 µM
- IC50 (TE-441-T): > 8 µM
- IC50 (THP-1): > 8 µM
- IC50 (CHP-126): > 8 µM

SMILES: Cn1cncc1[C@@](N)(c1ccc(Cl)cc1)c1ccc2c(c1)c(-c1cccc(Cl)c1)cc(=O)n2C [TIPIFARNIB]
- IC50 (DG-75): > 16 µM
- IC50 (DMS-153): > 16 µM
- IC50 (EB-3): 9.1 µM
- IC50 (EVSA-T): > 16 µM
- IC50 (G-361): 1.14 µM
- IC50 (GDM-1): 0.352 µM
- IC50 (HT55): > 16 µM
- IC50 (IM-9): > 16 µM
- IC50 (K052): 15.9 µM
- IC50 (KMS-12-PE): > 16 µM
- IC50 (LB647-SCLC): > 16 µM
- IC50 (LOUCY): > 16 µM
- IC50 (LU-165): > 16 µM
- IC50 (MEL-JUSO): 0.0234 µM
- IC50 (MHH-CALL-2): 10.6 µM
- IC50 (MONO-MAC-6): 3.35 µM
- IC50 (NB1): > 16 µM
- IC50 (NCI-H1417): > 16 µM
- IC50 (NCI-H1436): > 16 µM
- IC50 (NCI-H1522): > 16 µM
- IC50 (NCI-H1694): > 16 µM
- IC50 (NCI-H1703): > 16 µM
- IC50 (NCI-H2009): 0.363 µM
- IC50 (NCI-H2081): > 16 µM
- IC50 (NCI-H2141): > 16 µM
- IC50 (NCI-H2171): 3.55 µM
- IC50 (NCI-H345): > 16 µM
- IC50 (NCI-H460): 4.93 µM
- IC50 (NCI-H64): > 16 µM
- IC50 (NCI-H748): > 16 µM
- IC50 (NCI-H889): > 16 µM
- IC50 (REH): 0.0592 µM
- IC50 (RPMI 8402): 1.28 µM
- IC50 (SCC-3): > 16 µM
- IC50 (SCLC-21H): > 16 µM
- IC50 (SIMA): > 16 µM
- IC50 (SJRH30): 8.71 µM
- IC50 (SK-MM-2): > 16 µM
- IC50 (ST486): 1.26 µM
- IC50 (SUP-T1): 0.787 µM
- IC50 (ARH-77): > 16 µM
- IC50 (BC-3): 2.98 µM
- IC50 (BL-41): 2.77 µM
- IC50 (CA46): 2.39 µM
- IC50 (CAL-148): 0.884 µM
- IC50 (TE-15): 0.365 µM
- IC50 (TE-441-T): > 16 µM
- IC50 (THP-1): > 16 µM
- IC50 (CHP-126): > 16 µM

Source: ChEMBL document CHEMBL1201861, “Genomics of Drug Sensitity in Cancer screening data, Wellcome Trust Sanger Institute”
